Test results taken from patent US20100234377A1 (priority 2007, published 2010).
Read-outs that look alike come from different tables or passages of the source.

Target: T1, human Prostaglandin D Synthase (GST2) (Homo sapiens, UniProt O60760)
T1 construct: the open reading frame of human Prostaglandin D Synthase was amplified from cDNA; made in house; host or cells: E. coli TOP10F'
Assay: Homogeneous biochemical assay of human Prostaglandin D Synthase (GST2) based on its glutathion-S-transferase activity (GSH conjugation to monochlorobimane, fluorescence)
Excerpt: Homogeneous, Biochemical Assay Monitoring the Activity of Human Prostaglandin D Synthase Based on the Glutathion-S-Transferase Activity of the Enzyme
Prostaglandin D2 synthesis by Prostaglandin D synthase (GST2) requires transfer of Glutathion (GSH) to the substrate, Prostaglandin H2. […] Since the Prostaglandin D2 synthesis is absolutely dependent on the GST activity of the enzyme, assays monitoring the GST activity should allow to identify specific inhibitors of Prostaglandin D2 synthetic activity. The assay principle used is based on enzymatic conjugation of GSH to Monochlorobimane (MCB), that becomes fluorescent upon this chemical modification. Therefore, the enzymatic reaction can be monitored by total fluorescence measurement.
In brief, the open reading frame of human Prostaglandin D Synthase was amplified from cDNA using the primer pair:
This construct allows prokaryotic expression of Prostaglandin D Synthase as fusion protein with a N-terminal hexa-histidine tag, referred to as NHis-Prostaglandin D Synthase.
Expression of NHis-Prostaglandin D Synthase was in E. coli TOP10F′ (Invitrogen, Germany, cat. no. C3030-03). […] When the culture had reached a density corresponding to an A600 of 0.6, an equal volume of room temperature LB/ampicillin was added. […] Cells harvested by centrifugation were resuspended in 50 mM tris(hydroxymethyl)aminomethane hydrochloride pH 7.5 (Tris/HCl, Sigma, cat. no. T5941).
Removal of unbound material was with 100 ml lysis buffer. Elution was with 50 ml of 50 mM Tris/HCl pH 7.5, 300 mM imidazol (Sigma, Germany, cat. no. I2399)/HCl pH 7.5). […] Aliquots were shock frozen in liquid nitrogen and stored at −80° C.
All assay components were diluted in reaction buffer, 50 mM MES/KOH (pH 6.1), 0.7 mM GSH (Sigma, G4251), 2 mM MgCl2 (Sigma, M2670), 0.05% Pluronic F127 (Sigma, P2443), and stored on ice prior to use. Compounds were diluted in 90% DMSO yielding final assay concentrations from the picomolar to three digit micromolar range.
Total fluorescent measurement was carried out with excitation and emission wavelength of 390 and 460 nm, respectively (BMG Fluostar Optima).

[1] = given beside the compound name in Examples 1 to 167, read-out: Potency Range (GST2 IC50)

T1 sequence (O60760 whole entry): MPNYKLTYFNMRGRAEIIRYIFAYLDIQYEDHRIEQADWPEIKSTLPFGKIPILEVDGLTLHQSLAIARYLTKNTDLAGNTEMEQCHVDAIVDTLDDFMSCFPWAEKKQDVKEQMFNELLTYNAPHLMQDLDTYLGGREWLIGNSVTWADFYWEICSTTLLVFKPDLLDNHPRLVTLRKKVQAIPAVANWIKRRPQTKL

Compound: CC(=O)Nc1ccc2nc(NC(=O)N3CCN(C(=O)c4cccc(F)c4)CC3)sc2c1 [Compound 84, 4-(3-Fluoro-benzoyl)-piperazine-1-carboxylic acid (6-acetylamino-benzothiazol-2-yl)-amide]
- IC50 [1]: 11 to 100 nM

Compound: N#Cc1cc(NC(=O)N2CCN(C(=O)c3cccc(F)c3)CC2)ccc1F [Compound 85, 4-(3-Fluoro-benzoyl)-piperazine-1-carboxylic acid (3-cyano-4-fluoro-phenyl)-amide]
- IC50 [1]: 101 to 1000 nM

Compound: O=C(Nc1cccc(-c2ccncc2)c1)N1CCN(C(=O)c2cccc(F)c2)CC1 [Compound 86, 4-(3-Fluoro-benzoyl)-piperazine-1-carboxylic acid (3-pyridin-4-yl-phenyl)-amide]
- IC50 [1]: 101 to 1000 nM

Compound: O=C(Nc1cccc(-c2cccnc2)c1)N1CCN(C(=O)c2cccc(F)c2)CC1 [Compound 87, 4-(3-Fluoro-benzoyl)-piperazine-1-carboxylic acid (3-pyridin-3-yl-phenyl)-amide]
- IC50 [1]: 101 to 1000 nM

Compound: O=C(Nc1ccc(Br)c(F)c1)N1CCN(C(=O)c2cccc(F)c2)CC1 [Compound 88, 4-(3-Fluoro-benzoyl)-piperazine-1-carboxylic acid (4-bromo-3-fluoro-phenyl)-amide]
- IC50 [1]: 11 to 100 nM

Compound: O=C(Nc1ccc(-c2cc[nH]n2)cc1)N1CCN(C(=O)c2cccc(F)c2)CC1 [Compound 89, 4-(3-Fluoro-benzoyl)-piperazine-1-carboxylic acid [4-(1H-pyrazol-3-yl)-phenyl]-amide]
- IC50 [1]: 11 to 100 nM

Compound: Cc1nc(-c2ccc(NC(=O)N3CCN(C(=O)c4cccc(F)c4)CC3)cc2)cs1 [Compound 90, 4-(3-Fluoro-benzoyl)-piperazine-1-carboxylic acid [4-(2-methyl-thiazol-4-yl)-phenyl]-amide]
- IC50 [1]: 11 to 100 nM

Compound: O=C(Nc1ccc(S(=O)(=O)N2CCOCC2)cc1)N1CCN(C(=O)c2cccc(F)c2)CC1 [Compound 91, 4-(3-Fluoro-benzoyl)-piperazine-1-carboxylic acid [4-(morpholine-4-sulfonyl)-phenyl]-amide]
- IC50 [1]: 11 to 100 nM

Compound: O=C(Nc1cccc(S(=O)(=O)N2CCOCC2)c1)N1CCN(C(=O)c2cccc(F)c2)CC1 [Compound 92, 4-(3-Fluoro-benzoyl)-piperazine-1-carboxylic acid [3-(morpholine-4-sulfonyl)-phenyl]-amide]
- IC50 [1]: 101 to 1000 nM

Compound: CNC(=O)c1cccc(NC(=O)N2CCN(C(=O)c3cccc(F)c3)CC2)c1 [Compound 93, 4-(3-Fluoro-benzoyl)-piperazine-1-carboxylic acid (3-methylcarbamoyl-phenyl)-amide]
- IC50 [1]: 101 to 1000 nM

Compound: COC(=O)c1cc(NC(=O)N2CCN(C(=O)c3cccc(F)c3)CC2)ccc1F [Compound 94, 2-Fluoro-5-{[4-(3-fluoro-benzoyl)-piperazine-1-carbonyl]-amino}-benzoic acid methyl ester]
- IC50 [1]: 101 to 1000 nM

Compound: COC(=O)c1ccc(NC(=O)N2CCN(C(=O)c3cccc(F)c3)CC2)cc1F [Compound 95, 2-Fluoro-4-{[4-(3-fluoro-benzoyl)-piperazine-1-carbonyl]-amino}-benzoic acid methyl ester]
- IC50 [1]: 101 to 1000 nM

Compound: O=C(O)c1ccc(NC(=O)N2CCN(C(=O)c3cccc(F)c3)CC2)cc1F [Compound 96, 2-Fluoro-4-{[4-(3-fluoro-benzoyl)-piperazine-1-carbonyl]-amino}-benzoic acid]
- IC50 [1]: 101 to 1000 nM

Compound: O=C(Nc1ccc(C(=O)N2CCOCC2)c(F)c1)N1CCN(C(=O)c2cccc(F)c2)CC1 [Compound 97, 4-(3-Fluoro-benzoyl)-piperazine-1-carboxylic acid [3-fluoro-4-(morpholine-4-carbonyl)-phenyl]-amide]
- IC50 [1]: 101 to 1000 nM

Compound: O=C(Nc1ccc(F)nc1)c1ccc(NC(=O)N2CCN(C(=O)c3cccc(F)c3)CC2)cc1F [Compound 99, 4-(3-Fluoro-benzoyl)-piperazine-1-carboxylic acid [3-fluoro-4-(6-fluoro-pyridin-3-ylcarbamoyl)-phenyl]-amide]
- IC50 [1]: 101 to 1000 nM

Compound: O=C(O)c1ccc(NC(=O)N2CCN(C(=O)c3cccc(F)c3)CC2)cc1 [Compound 100, 4-{[4-(3-Fluoro-benzoyl)-piperazine-1-carbonyl]-amino}-benzoic acid]
- IC50 [1]: 101 to 1000 nM

Compound: CCN(CC)C(=O)c1ccc(NC(=O)N2CCN(C(=O)c3cccc(F)c3)CC2)cc1 [Compound 102, 4-(3-Fluoro-benzoyl)-piperazine-1-carboxylic acid (4-diethylcarbamoyl-phenyl)-amide]
- IC50: 101 to 1000 nM

Compound: O=C(Nc1ccc(F)nc1)c1ccc(NC(=O)N2CCN(C(=O)c3cccc(F)c3)CC2)cc1 [Compound 103, 4-(3-Fluoro-benzoyl)-piperazine-1-carboxylic acid [4-(6-fluoro-pyridin-3-ylcarbamoyl)-phenyl]-amide]
- IC50 [1]: 101 to 1000 nM

Compound: NC(=O)c1ccc(NC(=O)N2CCN(C(=O)c3cccc(F)c3)CC2)cc1F [Compound 104, 4-(3-Fluoro-benzoyl)-piperazine-1-carboxylic acid (4-carbamoyl-3-fluoro-phenyl)-amide]
- IC50 [1]: 101 to 1000 nM

Compound: Nc1cccc(NC(=O)N2CCN(C(=O)c3cccc(F)c3)CC2)c1 [Compound 106, 4-(3-Fluoro-benzoyl)-piperazine-1-carboxylic acid (3-amino-phenyl)-amide]
- IC50 [1]: 101 to 1000 nM

Compound: O=C(Nc1cccc(NC(=O)N2CCN(C(=O)c3cccc(F)c3)CC2)c1)c1ccccn1 [Compound 107, 4-(3-Fluoro-benzoyl)-piperazine-1-carboxylic acid {3-[(pyridine-2-carbonyl)-amino]-phenyl}-amide]
- IC50 [1]: 11 to 100 nM

Compound: O=C(Nc1cccc(NC(=O)N2CCN(C(=O)c3cccc(F)c3)CC2)c1)c1cccc[n+]1[O-] [Compound 108, 4-(3-Fluoro-benzoyl)-piperazine-1-carboxylic acid {3-[(1-oxy-pyridine-2-carbonyl)-amino]-phenyl}-amide]
- IC50 [1]: 101 to 1000 nM

Compound: O=C(Nc1cccc(NC(=O)N2CCN(C(=O)c3cccc(F)c3)CC2)c1)c1cc[n+]([O-])cc1 [Compound 110, 4-(3-Fluoro-benzoyl)-piperazine-1-carboxylic acid {3-[(1-oxy-pyridine-4-carbonyl)-amino]-phenyl}-amide]
- IC50 [1]: 101 to 1000 nM

Compound: O=C(Nc1cccc(NC(=O)N2CCN(C(=O)c3cccc(F)c3)CC2)c1)c1ccc(F)nc1 [Compound 111, 4-(3-Fluoro-benzoyl)-piperazine-1-carboxylic acid {3-[(6-fluoro-pyridine-3-carbonyl)-amino]-phenyl}-amide]
- IC50 [1]: 101 to 1000 nM

Compound: Nc1ccc(NC(=O)N2CCN(C(=O)c3cccc(F)c3)CC2)cc1 [Compound 112, 4-(3-Fluoro-benzoyl)-piperazine-1-carboxylic acid (4-amino-phenyl)-amide]
- IC50 [1]: 101 to 1000 nM

Compound: Nc1ccc(NC(=O)N2CCN(C(=O)c3cc(F)ccc3F)CC2)cc1 [Compound 113, 4-(2,5-Difluoro-benzoyl)-piperazine-1-carboxylic acid (4-amino-phenyl)-amide]
- IC50 [1]: 101 to 1000 nM

Compound: O=C(Nc1ccc(NC(=O)N2CCN(C(=O)c3cccc(F)c3)CC2)cc1)c1ccccn1 [Compound 114, 4-(3-Fluoro-benzoyl)-piperazine-1-carboxylic acid {4-[(pyridine-2-carbonyl)-amino]-phenyl}-amide]
- IC50 [1]: 11 to 100 nM

Compound: O=C(Nc1ccc(NC(=O)N2CCN(C(=O)c3cccc(F)c3)CC2)cc1)c1cccc[n+]1[O-] [Compound 115, 4-(3-Fluoro-benzoyl)-piperazine-1-carboxylic acid {4-[(1-oxy-pyridine-2-carbonyl)-amino]-phenyl}-amide]
- IC50 [1]: 11 to 100 nM

Compound: O=C(Nc1ccc(NC(=O)N2CCN(C(=O)c3cccc(F)c3)CC2)cc1)c1ccc[n+]([O-])c1 [Compound 116, 4-(3-Fluoro-benzoyl)-piperazine-1-carboxylic acid {4-[(1-oxy-pyridine-3-carbonyl)-amino]-phenyl}-amide]
- IC50 [1]: 11 to 100 nM

Compound: O=C(Nc1ccc(NC(=O)N2CCN(C(=O)c3cccc(F)c3)CC2)cc1)c1ccc(F)nc1 [Compound 117, 4-(3-Fluoro-benzoyl)-piperazine-1-carboxylic acid {4-[(6-fluoro-pyridine-3-carbonyl)-amino]-phenyl}-amide]
- IC50 [1]: 101 to 1000 nM

Compound: O=C(Nc1ccc(NC(=O)N2CCN(C(=O)c3cc(F)ccc3F)CC2)cc1)c1cccc[n+]1[O-] [Compound 118, 4-(2,5-Difluoro-benzoyl)-piperazine-1-carboxylic acid {4-[(1-oxy-pyridine-2-carbonyl)-amino]-phenyl}-amide]
- IC50 [1]: 11 to 100 nM

Compound: O=C(Nc1ccc(NC(=O)N2CCN(C(=O)c3cc(F)ccc3F)CC2)cc1)c1ccc[n+]([O-])c1 [Compound 119, 4-(2,5-Difluoro-benzoyl)-piperazine-1-carboxylic acid {4-[(1-oxy-pyridine-3-carbonyl)-amino]-phenyl}-amide]
- IC50 [1]: 11 to 100 nM
